Measurements published in patent publication US20010053796A1, “Delta-aminolevulinic acid for prevention and treatment of infection microorganisms and parasite” (priority 2000, published 2001).
In brackets after ≈: the same amount, converted by molar mass.

Key:
[1] = test system: Pseudomonas sp.; assay: MIC assay by flat drug disc method; format: cell-based; details: prepared by the inventors
Method: (§1) Pathogenic index bacteria used in this experiment are Edwardsiella tard, Streptococcus sp., Staphylococcus sp., Staphylococcus epidermidis, Pseudomonas sp., Vibrio anguillarum which are collected from the marine fish farm nearby Yeosu. In solid culture, they were cultured in TSA (tryptic soy agar) supplemented with 0.2% NaCl flat media and in liquid culture, they were prepared by culturing in BHI broth for 24 hrs and setting the O.D. value as 1.0. δ-aminolevulinic acid used in this experiment were one on the market (Sigma) and one formulated by inventors of the present invention (Korean patent application No. 1998-41898). Each 0.167 g δ-aminolevulinic acid were dissolved in 1.0 mL sterilized distilled water was used as undiluted solution. 1.0 M δ-aminolevulinic acid was 2-fold diluted with BHI broth by stages up to 64-fold and prepared for test solution to examine pathogenic bacteria proliferation-prohibiting effect. […] In control group, instead of δ-aminolevulinic acid, BHI broth bacteria suspension were mixed with (1:1) and then observed with the same method above. MIC assay by δ-aminolevulinic acid for major pathogenic bacteria of marine cultivating fishes, Edwardsiella tard, Streptococcus sp., Staphylococcus sp., Staphylococcus epidermidis, Pseudomonas sp., Vibrio anguillarum was carried out by flat drug disc method. 100 μL of each bacteria in a culture solution was mixed with fixed amount of top agar and coated to TSA agar. 1.0 M δ-aminolevulinic acid solution was diluted by 2 folds in PBS and 10 μL of each dilution were absorbed to sterilized disc. After incubation at 23˜25° C. for 2˜3 days, antibacterial effect was indicated by measuring the size (mm) of clear zone. In control group, PBS was absorbed into disc instead of δ-aminolevulinic acid dilution solution with the same amount and observed. From the result of this experiment using δ-aminolevulinic acid on the market, proliferation-inhibiting effects of pathogenic bacteria according to δ-aminolevulinic acid concentration are shown in Table 2a (Edwardsiella tard) and Table 2b (Streptococcus sp.). Below 1/32 fold (31 mM) of δ-aminolevulinic acid dilution rate, proliferation of both bacteria was inhibited. […] The experimental result of δ-aminolevulinic acid prepared by the inventors has shown in Table 3 and no difference in effects from δ-aminolevulinic acid on the market.

[2] = test system: Staphylococcus epidermidis; assay: MIC assay by flat drug disc method; format: cell-based; details: prepared by the inventors
Method: as §1

[3] = test system: Vibrio anguillarum; assay: Prevention effect for artificial infection (abdominal injection of bacteria); format: in vivo, Bastardhalibut; details: for Mortality during Cultivation: dead of 20 fish
Method: The water temperature was maintained at 20° C. (±2° C. ) throughout the experiment.
As the same method of above Experiment 1, fishes of both control group and experiment group were prepared and artificially infected by direct abdominal injection of Edwardsiella tarda 10^5 CFU per 1 fish. Each experimental fish was moved to fish tanks for monitoring and monitored for mortality according to infection for 2 weeks and viability after 2 weeks.
Bastardhalibut and Sebastes schlegeli were infected by Vibrio anguillarum through abdominal injection with the same method of fish breeding; δ-aminolevulinic acid treatment and artificial infection carried out in Experiment 1 and 2.

[4] = test system: Edwardsiella tarda; assay: Treatment effect of infected fry by oral administration in feed; format: in vivo, Bastardhalibut; details: 50 fish
Method: (§2) In this example, fry of Bastardhalibut and Sebastes schlegeli (mean body weight 2 g), 50 per each breeding tank, were preliminary-bred for 1 week and stabilized. […] The artificial infection methods were carried out through the digestion method. Pathogenic organisms were applied into fish tanks and introduced into seawater for an hour, wherein the concentration of organisms adjusted to 10^4 CFU/mL. Treatment conditions are as follows; after artificial infection, infected fish were moved to fish tanks and kept in the infection period for 3 days. […] The fish were bred for 2 weeks after exchanging with clean seawater and the mortality of fish according to infection was monitored. In the control groups, after each bacteria were identically infected through digestion method, mortality of Bastardhalibut and Sebastes schlegeli according to bacteria infection was identified while breeding with marketing assorted feed without δ-aminolevulinic acid. As a result of this experiment, δ-aminolevulinic acid-treated groups have shown high viability in both Bastardhalibut (Table 20˜Table 23) and Sebastes schlegeli (Table 24˜Table 27).

[5] = test system: Pseudomonas sp.; assay: as above; format: in vivo, Bastardhalibut; details: 50 fish
Method: as §2

[6] = test system: Staphylococcus epidermis; assay: as above; format: in vivo, Bastardhalibut; details: 50 fish
Method: as §2

[7] = test system: Staphylococcus sp.; assay: as above; format: in vivo, Bastardhalibut; details: 50 fish
Method: as §2

[8] = test system: Streptococcus sp.; assay: as above; format: in vivo, Bastardhalibut; details: 50 fish
Method: as §2

[9] = test system: Vibrio anguillarum; assay: as above; format: in vivo, Sebastes schlegeli; details: 50 fish, Bastardhalibut
Method: In this example, fry of Bastardhalibut and Sebastes schlegeli (mean body weight 2 g), 50 per each breeding tank, were preliminary-bred for 1 week and stabilized. […] The artificial infection methods were carried out through the digestion method. Pathogenic organisms were applied into fish tanks and introduced into seawater for an hour, wherein the concentration of organisms adjusted to 10^4 CFU/mL. Treatment conditions are as follows; after artificial infection, infected fish were moved to fish tanks and kept in the infection period for 3 days. On the fourth day of infection, 0.1˜50 ppm of δ-aminolevulinic acid for feed were added. The fish were bred for 2 weeks after exchanging with clean seawater and the mortality of fish according to infection was monitored. In the control groups, after each bacteria were identically infected through digestion method, mortality of Bastardhalibut and Sebastes schlegeli according to bacteria infection was identified while breeding with marketing assorted feed without δ-aminolevulinic acid. As a result of this experiment, δ-aminolevulinic acid-treated groups have shown high viability in both Bastardhalibut (Table 20˜Table 23) and Sebastes schlegeli (Table 24˜Table 27).

[10] = test system: RTG-2 (Rainbow Trout Gonad); details: 24 h
Method: δ-aminolevulinic acid feed were prepared to 1.0 M concentration (0. 167 g/mL HBSS) and diluted by 10-fold dilution method. 100 μl of each fish cell line suspension of 2.5×10^5 were placed into 96-well microplate and then, 100 μl of each of the resulting diluted solution, 4 well/dilution unit, were added respectively. Fish cell lines, which were used for this cell toxicity experiment of δ-aminolevulinic acid, were RTG-2 (Rainbow Trout Gonad), FHM (Fathead Minnow Epithelioma) and CHSE (Chinook Salmon Embryo) lotted out from Dr. M. Yoshimizu of the Department of Fisheries, Hokkaido University, Japan. For these experimental cells, 100 U/mL penicillin (Sigma), 100 μl/mL streptomycin (Sigma) and MEM media supplemented with 5% fetal bovine serum (FBS, Gibco) for cell culture were used. Cultured cells in 96-well microplate was incubated for 3 hrs at 15° C. and δ-aminolevulinic acid were added to wells at amounts of 100 μl of 0, 1.0, 10, 50 and 100 mM and incubated for 24 hrs at 18° C. As a control group, instead of δ-aminolevulinic acid, HBSS was added at the same amount. […] Absorbance was measured with an ELISA reader at 570 μl.

[11] = feed 0.1 ppm from 4th day of infection
[12] = feed 1.0 ppm from 4th day of infection
[13] = feed 50 ppm from 4th day of infection
[14] = feed 100 ppm from 4th day of infection

Which MIC [1] does the source give for `NCC(=O)CCC(=O)O` [δ-aminolevulinic acid] here?
The MIC was 42.2 µg/mL (≈ 322 µM).

And the MIC [2]?
The MIC was 62 µg/mL (≈ 473 µM).

And the Viability ([3]; orally, 0.1 ppm in feed)?
The Viability was 65%.

And the “Mortality during Cultivation” value ([3]; orally, 0.1 ppm in feed)?
The value was 7.

And the Viability ([3]; orally, 1.0 ppm in feed)?
The Viability was 55%.

And the “Mortality during Cultivation” value ([3]; orally, 1.0 ppm in feed)?
Its value is 9.

What about the Viability ([3]; orally, 10 ppm in feed) of the same compound?
The Viability was 85%.

What about the “Mortality during Cultivation” value ([3]; orally, 10 ppm in feed) of the same compound?
The value was 3.

What about the Viability ([3]; orally, 100 ppm in feed) of the same compound?
Its Viability is 90%.

What about the “Mortality during Cultivation” value ([3]; orally, 100 ppm in feed) of the same compound?
The value was 2.

And the Viability ([3]; to fish tanks, 0.01 ppm)?
Its Viability is 65%.

What about the “Mortality during Cultivation” value ([3]; to fish tanks, 0.01 ppm) of the same compound?
The value was 7.

What about the Viability ([3]; to fish tanks, 0.1 ppm) of the same compound?
Its Viability is 65%.

And the “Mortality during Cultivation” value ([3]; to fish tanks, 0.1 ppm)?
The value was 7.

What about the Viability ([3]; to fish tanks, 1.0 ppm) of the same compound?
The Viability was 80%.

And the “Mortality during Cultivation” value ([3]; to fish tanks, 1.0 ppm)?
Its value is 2.

What about the Viability ([3]; to fish tanks, 10 ppm) of the same compound?
The Viability was 85%.

And the “Mortality during Cultivation” value ([3]; to fish tanks, 10 ppm)?
The value was 3.

And the Viability [4, 11]?
Its Viability is 42%.

And the Viability [4, 12]?
The Viability was 68%.

And the Viability [4, 13]?
The Viability was 92%.

And the Viability [4, 14]?
The Viability was 82%.

What about the Viability [5, 11] of the same compound?
The Viability was 42%.

What about the Viability [5, 12] of the same compound?
The Viability was 68%.

What about the Viability [5, 13] of the same compound?
Its Viability is 88%.

What about the Viability [5, 14] of the same compound?
The Viability was 82%.

What about the Viability [6, 11] of the same compound?
The Viability was 42%.

And the Viability [6, 12]?
The Viability was 68%.

What about the Viability [6, 13] of the same compound?
Its Viability is 94%.

What about the Viability [6, 14] of the same compound?
The Viability was 86%.

What about the Viability [7, 11] of the same compound?
The Viability was 42%.

What about the Viability [7, 12] of the same compound?
The Viability was 72%.

And the Viability [7, 13]?
The Viability was 92%.

And the Viability [7, 14]?
The Viability was 86%.

What about the Viability [8, 11] of the same compound?
The Viability was 36%.

What about the Viability [8, 12] of the same compound?
Its Viability is 74%.

What about the Viability [8, 13] of the same compound?
The Viability was 90%.

And the Viability [8, 14]?
Its Viability is 86%.

What about the Viability [9, 11] of the same compound?
Its Viability is 50%.

And the Viability [9, 12]?
Its Viability is 74%.

And the Viability ([9]; feed 10 ppm from 4th day of infection)?
The Viability was 84%.

What about the Viability [9, 13] of the same compound?
Its Viability is 86%.

What about the “safe range of toxicity” value [10] of the same compound?
Its value is “below 10 mM”.
